# Assays:
# [1] = test system: β-globin disorders (β-thalassemia and sickle-cell anemia); settings: β-thalassemia and sickle-cell anemia patients; cited from earlier work
# [2] = test system: human neuroblastoma cell lines; experiment: Clonogenicity across the neuroblastoma cell lines (summary); assay type: cell-based
# Experimental: (§1) Inhibition of cancer cell growth in agar culture--clonogenicity was tested using cell lines as follows:
# (§2) Cells were harvested, washed in complete media, and counted.
# (§3) After overnight culture, AB or α-methyl-4-(2-methylpropyl)-benzeneacetyloxymethyl butyrate was added at the indicated concentration. The control cells received media alone.
# IMR-32 = experiment: Clonogenicity in soft agar (growth inhibition); assay type: cell-based, human; settings: Homo sapiens, read-out: clones relative to media-treated control cultures
# Experimental: as §1, §2, §3
# NBL-S = experiment: Clonogenicity in soft agar (growth inhibition); assay type: cell-based, human; settings: Homo sapiens
# Experimental: as §1, §2, §3
# SK-N-SH = experiment: Clonogenicity in soft agar (growth inhibition); assay type: cell-based, human; settings: Homo sapiens, read-out: clones relative to media-treated control cultures
# Experimental: as §1, §2, §3
# NBAS-5 = experiment: Clonogenicity in soft agar (growth inhibition); assay type: cell-based, human; settings: Homo sapiens
# Experimental: as §1, §2, §3
# CFPAC = experiment: Inhibition of cancer cell growth, sulforhodamine B (SRB) method; assay type: cell-based; settings: Homo sapiens
# Experimental: (§4) Inhibition of cancer cell growth was measured by the sulforhodamine B (SRB) method as described by Monks et al., J. Nat. Canc. Inst., (1991), 83: 757-766, incorporated herein in its entirety. The SRB assay is recognized by the National Institute for Cancer (NCI) as a reliable screen for anticancer drugs and is used by the NCI for this purpose. […] (FIGS. 3A-3D).
# LOX IMVI = experiment: as above; assay type: cell-based; settings: Homo sapiens
# Experimental: as §4
# OVCAR-5 = experiment: as above; assay type: cell-based; settings: Homo sapiens
# Experimental: as §4
# MCF7 = experiment: as above; assay type: cell-based; settings: Homo sapiens
# Experimental: as §4
smiles,measurement,setting,value
"CCCC(=O)O [AB, arginine butyrate, reference compound]",reported side effects,[1],"hypokalemia, headache, nausea and vomiting"
same,inhibition of clonogenicity (in words),[2],dose-dependent manner
same,activity at 100 µM,"IMR-32; IMR-32, 100 μM",108%
same,activity at 250 µM,"IMR-32; IMR-32, 250 μM",104%
same,activity at 500 µM,"IMR-32; IMR-32, 500 μM",69 ± 7%
same,activity at 1000 µM,"IMR-32; IMR-32, 1000 μM",49%
same,activity at 2000 µM,"IMR-32; IMR-32, 2000 μM",21%
same,IC50,NBL-S,701 µM
same,IC90,NBL-S,2000 µM
same,activity at 100 µM,SK-N-SH; 100 μM,99 ± 1%
same,activity at 250 µM,SK-N-SH; 250 μM,81 ± 1%
same,activity at 500 µM,SK-N-SH; 500 μM,75 ± 9%
same,activity at 1000 µM,SK-N-SH; 1000 μM,54 ± 2%
same,activity at 2000 µM,SK-N-SH; 2000 μM,24 ± 1%
same,IC50,NBAS-5; NBAS-5,833 µM
same,activity at 100 µM,"NBAS-5; NBAS-5, 100 μM, read-out: clones relative to media-treated control cultures",85 ± 1%
same,activity at 250 µM,"NBAS-5; NBAS-5, 250 μM, read-out: clones relative to media-treated control cultures",78 ± 2%
same,activity at 500 µM,"NBAS-5; NBAS-5, 500 μM, read-out: clones relative to media-treated control cultures",68 ± 2%
same,activity at 1000 µM,"NBAS-5; NBAS-5, 1000 μM, read-out: clones relative to media-treated control cultures",53%
same,activity at 2000 µM,"NBAS-5; NBAS-5, 2000 μM, read-out: clones relative to media-treated control cultures",25%
same,inhibition at 31.25 pM,CFPAC; dosage 0.03125 nM,6.6%
same,inhibition at 62.5 pM,CFPAC; dosage 0.06250 nM,4.8%
same,inhibition at 0.000125 µM,CFPAC; dosage 0.12500 nM,11.3%
same,inhibition at 0.00025 µM,CFPAC; dosage 0.25000 nM,1%
same,inhibition at 0.0005 µM,CFPAC; dosage 0.50000 nM,1.5%
same,inhibition at 0.001 µM,CFPAC; dosage 1.00000 nM,4.7%
same,inhibition at 0.002 µM,CFPAC; dosage 2.00000 nM,12.8%
same,inhibition at 0.004 µM,CFPAC; dosage 4.00000 nM,16.6%
same,inhibition at 31.25 pM,LOX IMVI; dosage 0.03125 nM,0%
same,inhibition at 62.5 pM,LOX IMVI; dosage 0.06250 nM,1.4%
same,inhibition at 0.000125 µM,LOX IMVI; dosage 0.12500 nM,1.5%
same,inhibition at 0.00025 µM,LOX IMVI; dosage 0.25000 nM,3.1%
same,inhibition at 0.0005 µM,LOX IMVI; dosage 0.50000 nM,1.8%
same,inhibition at 0.001 µM,LOX IMVI; dosage 1.00000 nM,11.8%
same,inhibition at 0.002 µM,LOX IMVI; dosage 2.00000 nM,10.7%
same,inhibition at 0.004 µM,LOX IMVI; dosage 4.00000 nM,23.3%
same,inhibition at 31.25 pM,"OVCAR-5; OVCAR-5, dosage 0.03125 nM",0%
same,inhibition at 62.5 pM,"OVCAR-5; OVCAR-5, dosage 0.06250 nM",0.1%
same,inhibition at 0.000125 µM,"OVCAR-5; OVCAR-5, dosage 0.12500 nM",0.5%
same,inhibition at 0.00025 µM,"OVCAR-5; OVCAR-5, dosage 0.25000 nM",0.3%
same,inhibition at 0.0005 µM,"OVCAR-5; OVCAR-5, dosage 0.50000 nM",1.3%
same,inhibition at 0.001 µM,"OVCAR-5; OVCAR-5, dosage 1.00000 nM",2.5%
same,inhibition at 0.002 µM,"OVCAR-5; OVCAR-5, dosage 2.00000 nM",6.6%
same,inhibition at 0.004 µM,"OVCAR-5; OVCAR-5, dosage 4.00000 nM",29.3%
same,inhibition at 31.25 pM,"MCF7; MCF7, dosage 0.03125 nM",0.3%
same,inhibition at 62.5 pM,"MCF7; MCF7, dosage 0.06250 nM",0.2%
same,inhibition at 0.000125 µM,"MCF7; MCF7, dosage 0.12500 nM",0%
same,inhibition at 0.00025 µM,"MCF7; MCF7, dosage 0.25000 nM",0.1%
same,inhibition at 0.0005 µM,"MCF7; MCF7, dosage 0.50000 nM",0%
same,inhibition at 0.001 µM,"MCF7; MCF7, dosage 1.00000 nM",1.2%
same,inhibition at 0.002 µM,"MCF7; MCF7, dosage 2.00000 nM",1.8%
same,inhibition at 0.004 µM,"MCF7; MCF7, dosage 4.00000 nM",2.2%
